This passage reports Activity and inhibition results from ChEMBL document CHEMBL5120888, “Voratins A-C: Pyridinium Alkaloids from the Marine Dinoflagellate Effrenium voratum with Inhibitory Effects on Biomarkers for Benign Prostatic Hyperplasia” (J Nat Prod, 2022).

Data set [1] deals with RWPE-1. In words: Cytotoxicity against human RWPE-1 cells at 0.1 to 1 uM incubated for 24 hrs by MTT assay. Particulars: rwpe-1, 24 h, dose 0.1-1 µM. Type of data set: toxicity, cell-based.
In data set [2] the test system is LNCaP. Kind of data set: Inhibition of testosterone propionate induced PSA expression in human LNCaP cells pretreated with TP for 1 hr followed by compound addition at 1 to 10 uM by Western blotting analysis. In kind it is functional, cell-based. Particulars: dose 1-10 µM.
The subject of data set [3] is LNCaP. Kind of data set: Inhibition of testosterone propionate induced AR expression in human LNCaP cells pretreated with TP for 1 hr followed by compound addition at 1 to 10 uM by Western blotting analysis. Type of data set: functional, cell-based. Particulars: dose 1-10 µM.
Data set [4] has as its system LNCaP. Kind of data set: Suppression of testosterone propionate induced 5AR2 expression in human LNCaP cells pretreated with TP for 1 hr followed by compound addition at 10 uM by Western blotting analysis. In kind it is functional, cell-based.
Data set [5] concerns LNCaP. In words: Suppression of testosterone propionate induced AR expression in human LNCaP cells pretreated with TP for 1 hr followed by compound addition at 10 uM by Western blotting analysis. In kind it is functional, cell-based.
Data set [6] has as its system LNCaP. In words: Suppression of testosterone propionate induced PSA expression in human LNCaP cells pretreated with TP for 1 hr followed by compound addition at 10 uM by Western blotting analysis. In kind it is functional, cell-based.
Data set [7] can be described thus: Inhibition of testosterone propionate induced 5AR2 expression in human LNCaP cells pretreated with TP for 1 hr followed by compound addition at 10 uM by Western blotting analysis. In kind it is functional.
Data set [8] in a line: Inhibition of testosterone propionate induced PSA expression in human LNCaP cells pretreated with TP for 1 hr followed by compound addition at 10 uM by Western blotting analysis. Type of data set: functional.
Data set [9] has as its system RWPE-1. In words: Inhibition of testosterone propionate induced PCNA expression in human RWPE-1 cells pretreated with TP for 1 hr followed by compound addition at 1 to 10 uM by Western blotting analysis. In kind it is functional, cell-based. Particulars: dose 1-10 µM.
Data set [10] is described as follows: Inhibition of testosterone propionate induced PSA expression in human RWPE-1 cells pretreated with TP for 1 hr followed by compound addition at 1 to 10 uM by Western blotting analysis. The arrangement: scale not given: the % may be the effect or the level left. Type of data set: functional. The settings on record: dose 1-10 µM.

Active and inactive are the calls of the source. The rule behind the calls is not given here.

Take `C=C1C[C@H](C(=O)[O-])O[C@@]2(C1)C[C@@H](C)C[C@H]([C@@H](O)c1cccc3[n+]1CC[C@H]3C)O2`: in the data set with RWPE-1 [1], the Activity result is on record as “Non-Toxic”. For the same compound, the inhibition entry in the data set with LNCaP [2] and in the data set on LNCaP [3] was “Active” in each case.
On to `CC(C)(C)NC(=O)[C@H]1CC[C@H]2[C@@H]3CC[C@H]4NC(=O)C=C[C@]4(C)[C@H]3CC[C@]12C`, for which the result in the data set on LNCaP [4], with LNCaP [5] and in the data set on LNCaP [6] was Active.
Consider `C=C1C[C@H](C(=O)[O-])O[C@@]2(C1)C[C@@H](C)C[C@H]([C@@H](O)c1cccc3[n+]1CC[C@@H]3C)O2`, for which the Activity result in the data set on RWPE-1 [1] is given as “Non-Toxic”. The inhibition entry in the data set on LNCaP [3] was “Active”. The inhibition at 10 µM in data set [7] and in data set [8] was 53% throughout.
Take `C[C@@H]1C[C@H]([C@@H](O)c2cccc3[n+]2CC[C@@H]3C)O[C@@]2(CC[C@H](C(=O)[O-])O2)C1`: the figures for the Activity result (in the data set on RWPE-1 [1]; in [10]) were “Non-Toxic” and 65%, respectively. The inhibition result with LNCaP [2], with LNCaP [3] and with RWPE-1 [9] was “Active” throughout. Moreover, the inhibition at 10 µM in data set [7] and in data set [8] was 61% throughout.
